Data on 4 compounds can be found in BindingDB's records for doi:10.1146/annurev.pa.30.040190.003221 (National Institute For Medical Research, 1990).

Assay [1] deals with T1, Muscarinic acetylcholine receptor M1 (Rattus norvegicus, UniProt P08482).
T1 sequence (P08482 whole entry): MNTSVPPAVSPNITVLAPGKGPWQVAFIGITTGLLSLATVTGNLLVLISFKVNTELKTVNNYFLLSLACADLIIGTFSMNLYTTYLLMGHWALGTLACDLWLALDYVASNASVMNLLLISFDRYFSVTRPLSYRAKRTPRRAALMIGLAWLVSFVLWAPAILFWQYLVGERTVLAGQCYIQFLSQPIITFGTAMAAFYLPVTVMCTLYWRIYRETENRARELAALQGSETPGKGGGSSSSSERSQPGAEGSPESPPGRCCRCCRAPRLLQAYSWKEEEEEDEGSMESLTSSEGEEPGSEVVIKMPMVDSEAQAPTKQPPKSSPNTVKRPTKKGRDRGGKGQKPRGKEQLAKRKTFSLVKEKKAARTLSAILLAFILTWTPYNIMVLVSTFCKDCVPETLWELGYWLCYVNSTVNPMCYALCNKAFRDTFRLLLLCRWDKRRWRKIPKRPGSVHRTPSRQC

Assay [2] concerns the target Muscarinic acetylcholine receptor M3 (Rattus norvegicus, UniProt P08483).
The target in assay [3] is T2, Muscarinic acetylcholine receptor M2 (Rattus norvegicus, UniProt P10980).
T2 sequence (P10980 whole entry): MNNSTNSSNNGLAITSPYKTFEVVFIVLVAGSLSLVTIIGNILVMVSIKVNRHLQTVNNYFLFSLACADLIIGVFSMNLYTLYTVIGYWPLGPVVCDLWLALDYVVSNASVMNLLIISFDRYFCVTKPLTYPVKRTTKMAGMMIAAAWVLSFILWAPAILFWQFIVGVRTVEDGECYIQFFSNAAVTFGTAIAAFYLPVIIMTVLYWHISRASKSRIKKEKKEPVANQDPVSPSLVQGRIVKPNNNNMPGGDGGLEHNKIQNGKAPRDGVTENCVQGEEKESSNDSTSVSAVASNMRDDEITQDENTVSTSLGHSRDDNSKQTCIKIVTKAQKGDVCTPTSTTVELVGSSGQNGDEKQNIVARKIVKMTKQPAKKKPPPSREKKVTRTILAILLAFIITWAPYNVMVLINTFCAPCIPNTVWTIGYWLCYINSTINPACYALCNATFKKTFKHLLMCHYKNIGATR

Muscarinic acetylcholine receptor M3, sequence (P08483 whole entry): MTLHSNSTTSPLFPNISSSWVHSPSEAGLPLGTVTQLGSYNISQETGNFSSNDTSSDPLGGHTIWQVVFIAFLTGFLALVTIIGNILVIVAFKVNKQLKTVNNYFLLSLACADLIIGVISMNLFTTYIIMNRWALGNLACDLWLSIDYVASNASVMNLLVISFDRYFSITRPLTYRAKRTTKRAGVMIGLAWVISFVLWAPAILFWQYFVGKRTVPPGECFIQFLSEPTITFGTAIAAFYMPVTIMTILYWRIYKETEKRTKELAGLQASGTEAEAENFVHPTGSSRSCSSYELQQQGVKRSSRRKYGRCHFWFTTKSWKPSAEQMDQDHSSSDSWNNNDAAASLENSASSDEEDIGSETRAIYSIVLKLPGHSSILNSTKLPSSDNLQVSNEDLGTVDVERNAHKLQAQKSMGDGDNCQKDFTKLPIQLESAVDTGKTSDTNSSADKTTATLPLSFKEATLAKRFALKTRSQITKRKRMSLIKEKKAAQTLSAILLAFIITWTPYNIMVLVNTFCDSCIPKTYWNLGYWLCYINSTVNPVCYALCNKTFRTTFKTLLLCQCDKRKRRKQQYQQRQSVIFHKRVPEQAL

A word on the Ki: it is the dissociation constant of the complex between target and ligand, obtained from inhibition or displacement. Higher therefore signals lower affinity. Take `CCN(CC)CC1CCCCN1CC(=O)N1c2ccccc2C(=O)Nc2cccnc21` (centres undefined) [(AF-DX 116) 11-[2-(2-Diethylaminomethyl-piperidin-1-yl)-acetyl]-5,11-dihydro-benzo[e]pyrido[3,2-b][1,4]diazepin-6-one]: the results for the Ki in assay [1] and in assay [2] were 398 nM and 1260 nM, respectively.

In the case of `CC(=O)N[C@H]1CO[C@H](COS(=O)(=O)O)[C@@H](O[C@@H]2O[C@H](C(=O)O)[C@@H](O[C@H]3O[C@H](CO)[C@@H](O[C@@H]4O[C@@H](C(=O)O)[C@@H](O)[C@H](O)[C@H]4OS(=O)(=O)O)[C@H](OS(=O)(=O)O)[C@H]3NS(=O)(=O)O)[C@H](O)[C@H]2OS(=O)(=O)O)[C@@H]1O` [CAS_9050-30-0], the Ki in assay [1] was determined as 12.6 nM; in assay [2] it was 6.31 nM; in assay [3] it was 126 nM.

As for `C[C@H]1OC(=O)C2C[C@H]3CCCC[C@@H]3[C@@H](/C=C/[C@@H]3CCC[C@H](C)N3C)C21` (some centres undefined) [HIMBACINE], the values for the Ki in assay [1], in assay [2] and in assay [3] were 100 nM, 126 nM and 7.94 nM, respectively.

`COc1ccccc1CNCCCCCCNCCCCCCCCNCCCCCCNCc1ccccc1OC` [METHOCTRAMINE] displayed a Ki in assay [2] of 316 nM.
